From patent US5969174A, “Competitive inhibitors of glyoxalase I and method of generating such competitive inhibitors inside tumor cells” (priority 1998, dated 1999)

Assays:
HL60 cells = settings: lower with HL60; literature (13); cited from earlier work
[1] = system: B16 melanotic melanoma cells; experiment: Growth inhibition, B16 melanotic melanoma cells in culture; format: cell-based, murine
Description: As a consequence, they are the strongest competitive inhibitors of human GlxI yet described, Table 1. […] With both cell lines there was some correlation between the Ki values of the enediol analogs and the IC50 values of the corresponding diethyl esters.
^d Sp-bromobenzylglutathione diethyl ester. Cells were incubated for
48 h in RPMI 1640/10% fetal calf serum (37° C.) in the absence and
in the presence of enzyme inhibitor. After the initial addition of
inhibitor at time zero, fresh inhibitor was added every 12 h in order to
compensate partially for the loss of inhibitor due to spontaneous
hydrolytic deethylation in the growth medium.

human tumor cell lines = settings: literature; cited from earlier work
GlxII = settings: cited from earlier work
splenic lymphocytes = experiment: Toxicity toward nonproliferating splenic lymphocytes; format: cell-based; settings: L1210 cells versus splenic lymphocytes
From the text: Conditions: See Table 1. Error bars represent standard deviations for triplicate determinations. Different symbols correspond to experiments carried out on different days.
This is illustrated for 2(Et)2 and S-p-bromobenzylglutathionediethyl ester by the dose-response curves of FIG. 3. […] Therefore, tumor cells might not be able to detoxify the inhibitors as rapidly as normal cells. In order to determine whether this could be a factor in the present study, the glyoxalase activities in both L1210 cells and splenic lymphocytes were determined. Indeed, while the GlxI activities in the two cell lines are nearly equal, the GlxII activity in L1210 cells is about 10-fold lower than that in splenic lymphocytes. The activities of GlxI and GlxII in L1210 cells were respectively 0.31±0.03 U/mg and 0.02±0.003 U/mg, while the activities in splenic lymphocytes were respectively 0.36±0.03U/mg and 0.20±0.03 U/mg.

L1210 cells = experiment: Growth inhibition / cytotoxicity, murine leukemia L1210 cells in culture; format: cell-based
human erythrocyte GlxI = settings: of the unethylated species with human erythrocyte GlxI (17); read-out: Ki, competitive inhibition constant; cited from earlier work

CCOC(=O)CNC(=O)[C@H](CSCc1ccc(Br)cc1)NC(=O)CC[C@H](N)C(=O)OCC [p-BrbzylSG(Et)2, Sp-bromobenzylglutathione diethyl ester, reference compound]
IC50 with HL60 cells versus nonproliferating human neutrophils (HL60 cells): about 5 -fold
IC50 ([1]; Mus musculus, 48 h, RPMI 1640/10% fetal calf serum, 37° C., fresh inhibitor every 12 h, mean ± SD, read-out: IC50, 50% growth inhibition, B16): 15 ± 5 µM
relative potency, B16 ([1]; versus 3(Et)2): about half as potent as 3(Et)2
toxicity to human tumor cell lines (human tumor cell lines): toxic to a range of different human tumor cell lines in culture
substrate for GlxII in words (GlxII): cannot serve as a substrate for GlxII
toxicity to splenic lymphocytes / selectivity in words (splenic lymphocytes; listed as S-p-Bromobenzylglutathione diethyl ester): selective toxicity
toxicity to splenic lymphocytes / selectivity in words (splenic lymphocytes; listed as S-p-bromobenzylglutathione diethyl ester): significant selective toxicity to L1210 cells
relative potency, L1210 (L1210 cells; L1210 cells): as potent as 2(Et)2 and 3(Et)2
IC50 (L1210 cells; Mus musculus, L1210, 48 h, RPMI 1640/10% fetal calf serum, 37° C., fresh inhibitor every 12 h, mean ± SD, read-out: IC50, 50% growth inhibition, L1210): 9.8 ± 3.2 µM
Ki (human erythrocyte GlxI): 0.17 µM
